Measurements as given in article PMC12354831 (Cell Death Discovery, 2025).

Legend:
GLUT3 [1] = target: T1, GLUT3 (Homo sapiens, UniProt P11169); assay: Cellular uptake of TMZ and CAPE by LC-MS/MS, GLUT3 KD U343-MG cells; type: in vitro ADME; details: for extracellular drug level higher than controls: GLUT3-KD U343-MG cells, remaining extracellular drug after uptake; for reduction of drug uptake by GLUT3 KD: U343-MG cells, 200 μM drug, 37 °C, 15 min, intracellular level vs control
T1 construct: expressed in transfected cells
T1 sequence (P11169 1-496): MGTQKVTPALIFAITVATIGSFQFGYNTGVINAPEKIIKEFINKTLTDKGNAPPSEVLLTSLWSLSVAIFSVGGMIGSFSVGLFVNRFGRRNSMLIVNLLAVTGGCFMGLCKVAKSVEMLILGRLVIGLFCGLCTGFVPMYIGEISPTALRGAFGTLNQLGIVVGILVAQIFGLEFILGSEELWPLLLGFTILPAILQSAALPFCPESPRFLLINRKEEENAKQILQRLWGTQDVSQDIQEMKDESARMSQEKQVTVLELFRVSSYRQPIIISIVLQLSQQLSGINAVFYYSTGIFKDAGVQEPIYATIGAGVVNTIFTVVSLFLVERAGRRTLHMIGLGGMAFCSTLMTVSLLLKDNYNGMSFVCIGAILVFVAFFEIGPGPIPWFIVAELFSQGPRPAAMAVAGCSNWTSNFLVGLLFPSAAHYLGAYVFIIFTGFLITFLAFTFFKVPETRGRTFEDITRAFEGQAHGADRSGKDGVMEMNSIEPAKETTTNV
Procedure: (§1) A total of 6 × 10^6 cells were seeded into each well of a 6 cm Petri dish and cultured at 37 °C in a humidified atmosphere containing 5% CO2 for 8 h. The cells were then washed twice with PBS (137 mM NaCl, 2.7 mM KCl, 10 mM Na2HPO4, 1.8 mM KH2PO4, pH 7.4) and incubated in transport buffer (140 mM NaCl, 5 mM KCl, 2 mM MgCl2, 2 mM CaCl2, 30 mM Tris-HCl, pH 7.4) for 15 min at 37 °C. […] Cell supernatants were collected and stored at 4 °C for subsequent extraction. The harvested cells were washed three times with PBS and extracted with 500 µL of 80% methanol for 30 min at −80 °C. The cell lysate was then centrifuged at 14,000 × g for 5 min at 4 °C, followed by 2 min of sonication. The supernatant was transferred to a new centrifuge tube. For LC-MS/MS analysis, the cell supernatants and cell lysates were diluted at a specific ratio. A total of 100 µL of each sample was mixed with 100 µL of acetonitrile (or standard reagent) and 300 µL of internal standard solution (^2H3-TMZ 100 ng/mL and ^2H11-CAPE 20 ng/mL dissolved in acetonitrile). […] Quality control (QC) samples were prepared and analyzed alongside the experimental samples to monitor the stability and repeatability of the instrument. QC samples were inserted regularly and analyzed every 6–12 samples. Each experiment was repeated 5–6 times.
(§2) LC-MS/MS analyses were performed using a high-performance liquid chromatography (HPLC) system (Shimadzu, LC-20A) coupled to a […] (ABSciex, API4000 QTRAP). The samples were separated on a 2.1 × 100 mm ACQUITY Premier BEH C18 1.7 µm VanGuard™ FIT column (Waters, Ireland). The mobile phases consisted of: Mobile phase A (0.1% formic acid and 2.5 mM ammonium acetate in water) and Mobile phase B (0.1% formic acid and 2.5 mM ammonium acetate in acetonitrile). Gradient elution was employed, with the flow rates and gradient conditions detailed in Table S2.
(§3) The mass spectrometry conditions were as follows: Ion source: electrospray ionization (ESI); Detection mode: positive ion mode; Scanning method: multiple reaction monitoring (MRM); Spray voltage (IS): 5500 V; Ion source temperature (TEM): 555 °C; Gas curtain pressure (CUR): 25 psi; Collision activation dissociation (CAD): MEDIUM; Nebulizer gas pressure (GS1): 55 psi; Auxiliary gas pressure (GS2): 55 psi.

[2] = tested on: U251-MG cell-derived xenograft; assay: Tumor growth in U251-MG cell-derived xenograft model; type: in vivo, nude mice (BALB/c-nu); details: TMZ 40 mg/kg or CAPE 20 mg/kg every 3 days; for effect of fasting on tumor growth under drug treatment: GLUT3-overexpressing tumors, 24 h fast before each dose vs non-fasting; for effect on tumor growth vs saline groups: nude mice
Procedure: All animal studies were approved and supervised by the Ethics Committee for Animal Use and Care at Peking University. Nude mice (BALB/c-nu) were purchased and maintained as previously described. For the establishment of xenograft tumor models, 1 × 10^6 U251-MG cells (either negative vector control or overexpressing GLUT3) were injected into the bilateral axillary fossae of 4-week-old nude mice. After 7 days, when palpable tumors had formed, the mice were randomly divided into six experimental groups (n = 7 per group), and treatment was initiated immediately.
Tumor diameters were measured every 4 days using calipers. At the end of the study, all mice were sacrificed, and the tumors were carefully excised and weighed. Tumor volume was calculated using the formula V = (length*width^2)/2. Data were analyzed using statistical software to evaluate the differences among groups.

[3] = CC50 determination (CCK-8) in normal astrocyte cell line SVGp12; type: cell-based; details: human, SVGp12 normal astrocyte cells, SVGp12 normal astrocytes
Procedure: The human normal astrocyte cell line SVGp12 was seeded in a 96-well plate at a density of 5 × 10^3 cells per well and incubated overnight at 37 °C in a humidified atmosphere containing 5% CO2. […] After the treatment period, 10 μL of CCK-8 reagent was added to each well, followed by an additional incubation for 1 h under the same conditions. The absorbance at 450 nm was measured using a microplate reader. In this study, the experimental group treated with TMZ or CAPE was designated as group A, the control group treated with DMSO as group B, and the blank control group without cells as group C. The cell viability rate was calculated using the formula: (A-C)/(B-C) × 100%, where A, B, and C represent the absorbance values of group A, group B, and group C, respectively.

GLUT3 [4] = target: T1, GLUT3; assay: Cellular uptake of TMZ and CAPE by LC-MS/MS, GLUT3 OE U251-MG cells; type: in vitro ADME; details: for decrease of extracellular drug concentration: GLUT3 OE U251-MG cells, remaining extracellular drug after uptake; for increase of drug uptake by GLUT3 OE: U251-MG cells, 200 μM drug, 37 °C, 15 min, intracellular level vs control
Procedure: as §1, §2, §3

| Structure (SMILES) | extracellular drug level higher than controls (GLUT3 [1]) | reduction of drug uptake by GLUT3 KD (GLUT3 [1]) | effect of fasting on tumor growth under drug treatment [2] | effect on tumor growth vs saline groups [2] | CC50 at 24 h [3] | decrease of extracellular drug concentration (GLUT3 [4]) | increase of drug uptake by GLUT3 OE (GLUT3 [4]) |
| --- | --- | --- | --- | --- | --- | --- | --- |
| CCCCCOC(=O)Nc1nc(=O)n([C@@H]2O[C@H](C)[C@@H](O)[C@H]2O)cc1F [CAPE, capecitabine] | 12% | 65.5% | significantly inhibited tumor growth | reducing tumor weights and volumes | 163 ± 31.8 µM | 5.4% | ~ 70% |
| Cn1nnc2c(C(N)=O)ncn2c1=O [TMZ] | 3% | 54.3% | significantly inhibited tumor growth | reducing tumor weights and volumes | 104 ± 21.1 µM | 7.7% | ~ 70% |
